System: NHBE cells
Experiment: Biolog metabolic array: substrate use by NHBE cells with or without CA09 infection
Assay type: cell-based, human
Settings: for Substrate use, 590 nm absorbance normalized to zero hour, 1 hr: Biolog PMM2, 1 hr; for Substrate use, 590 nm absorbance normalized to zero hour, 5 hr: Biolog PMM2, 5 hr; for Substrate use, 590 nm absorbance normalized to zero hour, 7 hr: Biolog PMM2, 7 hr
[1] = Control (uninfected) NHBE cells
[2] = Virus (CA09-infected, MOI 1) NHBE cells
[3] = Virus: CA09-infected NHBE cells, MOI 1, Biolog PMM2
[4] = Virus (CA09, MOI 1) infected NHBE cells

SMILES	590 nm absorbance normalized to zero hour (substrate use), 1 hr [1]	590 nm absorbance normalized to zero hour (substrate use), 2 hr [1]	590 nm absorbance normalized to zero hour (substrate use), 3 hr [1]	590 nm absorbance normalized to zero hour (substrate use), 4 hr [1]	590 nm absorbance normalized to zero hour (substrate use), 6 hr [1]	590 nm absorbance normalized to zero hour (substrate use), 8 hr [1]	590 nm absorbance normalized to zero hour (substrate use), 9 hr [1]	590 nm absorbance normalized to zero hour (substrate use), 10 hr [1]	590 nm absorbance normalized to zero hour (substrate use), 11 hr [1]	Substrate use, 590 nm absorbance normalized to zero hour, 1 hr [1]	Substrate use, 590 nm absorbance normalized to zero hour, 5 hr [1]	Substrate use, 590 nm absorbance normalized to zero hour, 7 hr [1]	590 nm absorbance normalized to zero hour (substrate use), 1 hr [2]	590 nm absorbance normalized to zero hour (substrate use), 2 hr [2]	590 nm absorbance normalized to zero hour (substrate use), 3 hr [2]	590 nm absorbance normalized to zero hour (substrate use), 4 hr [2]	590 nm absorbance normalized to zero hour (substrate use), 6 hr [2]	590 nm absorbance normalized to zero hour (substrate use), 8 hr [2]	590 nm absorbance normalized to zero hour (substrate use), 9 hr [2]	590 nm absorbance normalized to zero hour (substrate use), 10 hr [2]	other results
CCC(=O)O [Propionic Acid]	1.39	1.55	1.71	1.74	0.17	1.84	1.99	1.15	1.23	1.39	1.91	1.75	1.23	0.70	0.83	0.93	1.15	1.18	1.32	1.11	590 nm absorbance normalized to zero hour (substrate use), 5 hr [2]: 1.08; 590 nm absorbance normalized to zero hour (substrate use), 7 hr [2]: 1.17; 590 nm absorbance normalized to zero hour (substrate use), 11 hr [2]: 1.26; 590 nm absorbance normalized to zero hour (substrate use), 1 hr [3]: 1.23; 590 nm absorbance normalized to zero hour (substrate use), 2 hr [3]: 0.70; 590 nm absorbance normalized to zero hour (substrate use), 3 hr [3]: 0.83; 590 nm absorbance normalized to zero hour (substrate use), 4 hr [3]: 0.93; 590 nm absorbance normalized to zero hour (substrate use), 5 hr [3]: 1.08; 590 nm absorbance normalized to zero hour (substrate use), 6 hr [3]: 1.15; 590 nm absorbance normalized to zero hour (substrate use), 7 hr [3]: 1.17; 590 nm absorbance normalized to zero hour (substrate use), 8 hr [3]: 1.18; 590 nm absorbance normalized to zero hour (substrate use), 9 hr [3]: 1.32; 590 nm absorbance normalized to zero hour (substrate use), 10 hr [3]: 1.11; 590 nm absorbance normalized to zero hour (substrate use), 11 hr [3]: 1.26
CC(=O)C(=O)O [Pyruvic Acid]	1.34	1.40	1.54	1.61	1.39	1.57	1.71	1.81	2.49	1.34	1.70	1.52	1.27	0.82	0.94	1.20	1.09	0.67	0.65	0.75	590 nm absorbance normalized to zero hour (substrate use), 5 hr [2]: 1.10; 590 nm absorbance normalized to zero hour (substrate use), 7 hr [2]: 1.06; 590 nm absorbance normalized to zero hour (substrate use), 11 hr [2]: 0.61; 590 nm absorbance normalized to zero hour (substrate use), 1 hr [3]: 1.27; 590 nm absorbance normalized to zero hour (substrate use), 2 hr [3]: 0.82; 590 nm absorbance normalized to zero hour (substrate use), 3 hr [3]: 0.94; 590 nm absorbance normalized to zero hour (substrate use), 4 hr [3]: 1.20; 590 nm absorbance normalized to zero hour (substrate use), 5 hr [3]: 1.10; 590 nm absorbance normalized to zero hour (substrate use), 6 hr [3]: 1.09; 590 nm absorbance normalized to zero hour (substrate use), 7 hr [3]: 1.06; 590 nm absorbance normalized to zero hour (substrate use), 8 hr [3]: 0.67; 590 nm absorbance normalized to zero hour (substrate use), 9 hr [3]: 0.65; 590 nm absorbance normalized to zero hour (substrate use), 10 hr [3]: 0.75; 590 nm absorbance normalized to zero hour (substrate use), 11 hr [3]: 0.61
OCc1ccccc1O[C@@H]1O[C@H](CO)[C@@H](O)[C@H](O)[C@H]1O [Salicin]	1.17	0.93	0.96	0.83	0.43	0.67	0.66	0.62	0.62	1.17	0.78	0.69	0.77	1.06	1.26	1.36	1.76	2.01	2.26	2.38	Substrate use, 590 nm absorbance normalized to zero hour, 1 hr [4]: 0.77; Substrate use, 590 nm absorbance normalized to zero hour, 5 hr [4]: 1.64; Substrate use, 590 nm absorbance normalized to zero hour, 7 hr [4]: 1.87; 590 nm absorbance normalized to zero hour (substrate use), 11 hr [2]: 2.62
OC[C@@]12OC[C@@H](O1)[C@@H](O)[C@@H](O)[C@@H]2O [Sedoheptulosan]	0.31	0.41	0.44	0.49	0.56	0.71	0.82	0.89	1.46	0.31	0.61	0.71	1.49	1.48	1.46	1.43	1.36	1.49	1.58	1.48	590 nm absorbance normalized to zero hour (substrate use), 0 hr [1]: 1.00; Substrate use, 590 nm absorbance normalized to zero hour, 0 hr (Control (uninfected) NHBE cells, Biolog PMM2, 0 hr): 1.00; 590 nm absorbance normalized to zero hour (substrate use), 0 hr [2]: 1.00; 590 nm absorbance normalized to zero hour (substrate use), 5 hr [2]: 1.30; 590 nm absorbance normalized to zero hour (substrate use), 7 hr [2]: 1.39; 590 nm absorbance normalized to zero hour (substrate use), 11 hr [2]: 1.65; 590 nm absorbance normalized to zero hour (substrate use), 0 hr [3]: 1.00; 590 nm absorbance normalized to zero hour (substrate use), 1 hr [3]: 1.49; 590 nm absorbance normalized to zero hour (substrate use), 2 hr [3]: 1.48; 590 nm absorbance normalized to zero hour (substrate use), 3 hr [3]: 1.46; 590 nm absorbance normalized to zero hour (substrate use), 4 hr [3]: 1.43; 590 nm absorbance normalized to zero hour (substrate use), 5 hr [3]: 1.30; 590 nm absorbance normalized to zero hour (substrate use), 6 hr [3]: 1.36; 590 nm absorbance normalized to zero hour (substrate use), 7 hr [3]: 1.39; 590 nm absorbance normalized to zero hour (substrate use), 8 hr [3]: 1.49; 590 nm absorbance normalized to zero hour (substrate use), 9 hr [3]: 1.58; 590 nm absorbance normalized to zero hour (substrate use), 10 hr [3]: 1.48; 590 nm absorbance normalized to zero hour (substrate use), 11 hr [3]: 1.65
